Literature values as cited in patent publication US10874130B2, “Steviol glycoside solutions” (PureCircle USA Inc., priority 2015, dated 2020).

Conditions: heat and pH

Row | SMILES | Stability in carbonated beverages
1 | C=C1C[C@@]23CC[C@H]4[C@@](C)(CCC[C@@]4(C)C(=O)O[C@@H]4O[C@H](CO)[C@@H](O)[C@H](O)[C@H]4O)[C@@H]2CC[C@]1(O[C@@H]1O[C@H](CO)[C@@H](O)[C@H](O[C@@H]2O[C@H](CO)[C@@H](O)[C@H](O)[C@H]2O)[C@H]1O[C@@H]1O[C@H](CO)[C@@H](O)[C@H](O)[C@H]1O)C3 [rebaudioside A] | heat and pH stability
2 | C=C1C[C@@]23CC[C@H]4[C@@](C)(CCC[C@@]4(C)C(=O)O[C@@H]4O[C@H](CO)[C@@H](O)[C@H](O)[C@H]4O)[C@@H]2CC[C@]1(O[C@@H]1O[C@H](CO)[C@@H](O)[C@H](O)[C@H]1O[C@@H]1O[C@H](CO)[C@@H](O)[C@H](O)[C@H]1O)C3 [stevioside] | heat and pH stability
